According to patent US20040142881A1, “Novel immunosuppressive agent” (TOYO SUISAN KAISHA, LTD., priority 2001, published 2004):

System: responder cells (T lymphocytes)
Experiment: Mixed lymphocytes reaction ([3H]-thymidine uptake of responder cells)
Type: cell-based, human
Conditions: test substance at 2.5, 5, 10, 25 μg/mL (Nos. 1-6) or 5, 10, 25 μg/mL (Nos. 7-12); 4 days culture with mitomycin C-treated stimulator cells; FIGS. 1 and 2
Description: Mixed lymphocytes reaction
Lymphocytes serving as stimulator cells and responder cells were prepared from blood taken from individual healthy persons.
The responder cells were further separated from the lymphocyte cells to give T lymphocytes alone.
No treatment was applied to the responder cells. 10^6/mL of the stimulator cells were treated with 10 μg/mL of mitomycin C to stop the cell growth.
Subsequently, the responder cells were inoculated in a 96-well plate, at a rate of 10^5 cells per well, and then test substances (compound Nos. 1 to 12 listed in Table 1 below) were added to a predetermined concentration. The reaction mixture was cultured at 37° C. for one hour. Thereafter, the stimulator cells were added at a rate of 10^5 cells per well. The mixture was cultured in a CO2 incubator at 37° C. for 4 days. After the incubation, the proliferation ability of the responder cells was quantified as follows. First, [^3H]-thymidine was added to the responder cells and incorporated into the nucleus of the cells by culturing the cells for 16 hours. Then, the amount of [^3H]-thymidine uptake into the cells was determined by a scintillation counter.

Compound: CCCCCCCCCCCCCCCCCC(=O)OCC(CO[C@@H]1O[C@H](CS(=O)(=O)[O-])[C@H](O)[C@H](O)[C@H]1O)OC(=O)CCCCCCCCCCCCCCCCC.[Na+] (stereo partly drawn) [compound No. 12, 3-0-(6-deoxy-6-sulfo-β-D-galactopyranosyl)-1,2-di-0-stearoyl-glycerol sodium salt]
- immunosuppressive activity (amount of [3H]-thymidine uptake; the lower the uptake, the higher the activity): not confirmed
